Laboratory results from patent US11767310B2, “Nicotinamide RIPK1 inhibitors” (AbbVie Inc., priority 2021, dated 2023).

Legend:
[1] = tested on: U937 cells; test: U937 TNF/zVAD Cytotoxicity Cell Assay; type: cell-based; settings: Homo sapiens, U-937; TNFα 10 ng/mL + Z-VAD FMK 20 μM, 16-20 hours; read-out: U937 TNF/zVAD Induced Cytotoxicity IC50
Protocol: Compounds were tested for their ability to prevent TNF induced necroptosis in U937 cells. Treatment with TNF and the caspase inhibitor zVAD-FMK results in the activation and phosphorylation of RIPK1 and subsequent phosphorylation of RIPK3 and MLKL (Mixed Lineage Kinase Domain Like Pseudokinase), leading to induction of necroptotic cell death that is measured as a reduction in cell viability. Similar U937 assay protocols have been previously described; see, e.g., Harris et al., ACS Med. Chem. Letters (2013) 4:1238-1243 and Supplementary Information.
Test compounds were solvated in dimethyl sulfoxide (DMSO) and 3-fold serially diluted from 10 uM to 0.0005 uM with technical duplicates into an empty 384 well plate. U937 cells were resuspended at a concentration of 500,000 cells/mL in fresh RPMI (Roswell Park Memorial Institute) 1640 growth medium containing 10% heat inactivated fetal bovine serum (FB1S) and seeded into a 384 well plate containing compounds and incubated for 1 hour at 37° C. Following incubation, the cells were challenged with TNFα (final concentration of 10 ng/mL) and Z-VAD FMK (N-Benzyloxycarbonyl-Val-Ala-Asp(O-Me) fluoromethyl ketone; final concentration of 20 μM) for 16-20 hours at 37° C. Following the incubation with TNFα/Z-VAD, cells were lysed with Cell Titer-Glo and incubated for 5-10 minutes. The plate was then read on an Envision plate reader. Data was normalized and analyzed with Studies from Dotmatics.

[2] = target: RIPK1 (Homo sapiens (Human), UniProt Q13546); test: RIPK1 Binding Assay; settings: displacement of fluorescent probe, TR-FRET
Protocol: Compounds were tested for their ability to displace a fluorescent probe from recombinant human RIPK1.
Recombinant human RIPK1 (1-375) was prepared as described in Harris et al., ACS Med. Chem. Letters (2013) 4:1238-1243 (Supplementary Information), with the following exceptions: (i) instead of using the gene sequence from NM_003804.3, the gene was synthesized with codon optimization for BEV expression system, and (ii) the gene was cloned into the vector pFastBac1, not pDEST8.
A fluorescent probe containing an Oregon green fluorophore was synthesized from a compound known to bind to RIPK1.
The assay was performed in a buffer containing 50 mM N-2-Hydroxyethylpiperazine-N′-2-ethanesulfonic acid (HEPES) (pH 7.5), 10 mM MgCl2, 1 mM ethylene diamine tetraacetic acid (EDTA), and 0.01% BRIJ-35 (Polyoxyethylene (23) lauryl ether). Test compounds were solvated in dimethyl sulfoxide (DMSO) at final concentrations 4-fold serially diluted from 100 to 0.000095 uM in technical duplicates into an empty 384 well plate. Recombinant RIPK1 (final concentration of 2.5 nM) was added to the wells and incubated with test compound for 1 hour at room temperature. A solution containing the fluorescent probe (final concentration 5 nM) and an LanthaScreen Tb-anti-GST antibody (Thermofisher Scientific; final concentration of 5 nM) was then added to each well, with the Tb-anti-GST antibody binding to the GST portion of the recombinant RIPK1 and providing the corresponding FRET pair to the fluorescent probe. The plate was incubated for 1 hour at room temperature and read on an Envision plate reader using a time resolved FRET protocol. Data was normalized and analyzed using Studies from Dotmatics.

Chain of RIPK1 (Q13546 1-375): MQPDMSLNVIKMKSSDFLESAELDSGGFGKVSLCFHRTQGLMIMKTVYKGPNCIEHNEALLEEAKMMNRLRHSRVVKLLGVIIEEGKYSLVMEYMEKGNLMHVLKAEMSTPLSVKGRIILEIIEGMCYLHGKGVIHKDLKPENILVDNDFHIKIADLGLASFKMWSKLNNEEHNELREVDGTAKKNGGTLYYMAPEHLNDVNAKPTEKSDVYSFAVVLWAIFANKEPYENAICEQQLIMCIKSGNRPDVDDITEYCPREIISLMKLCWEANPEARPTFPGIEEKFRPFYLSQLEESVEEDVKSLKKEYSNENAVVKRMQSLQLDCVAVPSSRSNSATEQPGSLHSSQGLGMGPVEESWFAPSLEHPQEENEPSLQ

SMILES | IC50 [1] [nM] | IC50 [2] [nM]
CN(C[C@@H](O)Cc1ccccc1)C(=O)c1cncc(C#Cc2cnn(C)c2C2CC2)c1 [Example 11, (S)-5-((5-cyclopropyl-1-methyl-1H-pyrazol-4-yl)ethynyl)-N-(2-hydroxy-3-phenylpropyl)-N-methylnicotinamide] | 5 | 2
COc1ncc(C(=O)N(C)C[C@@H](O)Cc2ccccc2)cc1C#Cc1cnn(C)c1 [Example 13, (S)-N-(2-hydroxy-3-phenylpropyl)-6-methoxy-N-methyl-5-((1-methyl-1H-pyrazol-4-yl)ethynyl)nicotinamide] | 382 | 95
CN(C[C@@H](O)Cc1cccc(F)c1)C(=O)c1cncc(C#Cc2cnn(C)c2)c1 [Example 12, (S)-N-(3-(3-fluorophenyl)-2-hydroxypropyl)-N-methyl-5-((1-methyl-1H-pyrazol-4-yl)ethynyl)nicotinamide] | 20 | 13
Cc1ncc(C#Cc2cncc(C(=O)N(C)C[C@@H](O)Cc3ccccc3)c2)o1 [Example 17, (S)-N-(2-hydroxy-3-phenylpropyl)-N-methyl-5-((2-methyloxazol-5-yl)ethynyl)nicotinamide] | 146 | 32
CN(C[C@@H](O)Cc1ccccc1)C(=O)c1cncc(C#Cc2cnn(C)n2)c1 [Example 3, (S)-N-(2-hydroxy-3-phenylpropyl)-N-methyl-5-((2-methyl-2H-1,2,3-triazol-4-yl)ethynyl)nicotinamide] | 196 | 36
CN(C[C@@H](O)Cc1ccccc1)C(=O)c1cncc(C#Cc2cnn(C(F)(F)F)c2)c1 [Example 4, (S)-N-(2-hydroxy-3-phenylpropyl)-N-methyl-5-((1-(trifluoromethyl)-1H-pyrazol-4-yl)ethynyl)nicotinamide] | 199 | 30
CN(C[C@@H](O)Cc1ccccc1)C(=O)c1cncc(C#Cc2cnn(C3COC3)n2)c1 [Example 10, (S)-N-(2-hydroxy-3-phenylpropyl)-N-methyl-5-((2-(oxetan-3-yl)-2H-1,2,3-triazol-4-yl)ethynyl)nicotinamide] | 380 | 43
CN(C[C@@H](O)Cc1ccccc1)C(=O)c1cncc(C#Cc2cnn(C3CC3)c2)c1 [Example 5, (S)-5-((1-cyclopropyl-1H-pyrazol-4-yl)ethynyl)-N-(2-hydroxy-3-phenylpropyl)-N-methylnicotinamide] | 49 | 14
CN(CC(O)Cc1ccccc1)C(=O)c1cnc(C(F)F)c(C#Cc2cnn(C)c2)c1 (stereo in doubt) [Example 9, (S)-6-(difluoromethyl)-N-(2-hydroxy-3-phenylpropyl)-N-methyl-5-((1-methyl-1H-pyrazol-4-yl)ethynyl)nicotinamide] | 29 | 18
Cc1c(C#Cc2cncc(C(=O)N(C)C[C@@H](O)Cc3ccccc3)c2)cnn1C(F)F [Example 26, (S)-5-((1-(difluoromethyl)-5-methyl-1H-pyrazol-4-yl)ethynyl)-N-(2-hydroxy-3-phenylpropyl)-N-methylnicotinamide] | 3 | 1.8
Cc1ncc(C#Cc2cncc(C(=O)N(C)C[C@@H](O)Cc3ccccc3)c2)s1 [Example 15, (S)-N-(2-hydroxy-3-phenylpropyl)-N-methyl-5-((2-methylthiazol-5-yl)ethynyl) nicotinamide] | – | 25000
CN(C[C@@H](O)[C@@H](F)c1ccccc1)C(=O)c1cncc(C#Cc2cnn(C)c2)c1 [Example 7, N-((2R,3S)-3-fluoro-2-hydroxy-3-phenylpropyl)-N-methyl-5-((1-methyl-1H-pyrazol-4-yl)ethynyl)nicotinamide] | 9 | 7
CN(C[C@@H](O)Cc1ccccc1)C(=O)c1cncc(C#Cc2cnn(C3CCC3)c2)c1 [Example 6, (S)-5-((1-cyclobutyl-1H-pyrazol-4-yl)ethynyl)-N-(2-hydroxy-3-phenylpropyl)-N-methylnicotinamide] | 6 | 3
CN(C[C@@H](O)Cc1ccccc1)C(=O)c1cncc(C#Cc2cnn3c2COCC3)c1 [Example 8, (S)-5-((6,7-Dihydro-4H-pyrazolo[5,1-c][1,4]oxazin-3-yl)ethynyl)-N-(2-hydroxy-3-phenylpropyl)-N-methylnicotinamide] | 13 | 6
